Key:
A. baumannii 110193 = assay: microbe, parasite or virus in culture; type: cell-based, Acinetobacter baumannii; details: one value per checkerboard plate; for MIC: Acinetobacter baumannii, 110193, agent alone; for MIC alone: agent alone
Protocol: (§1) The adjuvant properties of the guanidinylated polymyxins were evaluated using the checkerboard assay as previously described. The bacterial solution was prepared as described in the antimicrobial susceptibility assay. The antibiotic of interest and the adjuvant were serially diluted two-fold along the x- and y-axis on a 96-well plate, respectively, resulting in varying concentrations of both agents in each well. Equal volumes of bacterial solution were added to the designated wells. The well consisting of bacterial solution served as the positive control, while the wells containing only media served as the negative control. The plate was then incubated at 37 °C for 18 h. After incubation, an Emax Plus microplate reader (Molecular Devices, Union City, CA, USA) was used to measure the OD at a wavelength of 590 nm to confirm the turbidity. The fractional inhibitory concentration (FIC) index was then determined to establish the relationship between the antibiotic and adjuvant. The FIC index corresponds to the sum of the FICs of the antibiotic and adjuvant. The FIC of each agent is calculated by dividing its MIC when it is used in combination by its MIC when used alone. FIC indices ≤0.5, 0.5 < x ≤ 4 and >4 indicate synergy, additivity and antagonism, respectively.

A. baumannii AB027 = assay: microbe, parasite or virus in culture; type: cell-based, Acinetobacter baumannii; details: one value per checkerboard plate; for MIC: Acinetobacter baumannii, AB027, agent alone; for MIC alone: agent alone
Protocol: as §1

A. baumannii 92247 = assay: microbe, parasite or virus in culture; type: cell-based, Acinetobacter baumannii; details: one value per checkerboard plate; for MIC: Acinetobacter baumannii, 92247, agent alone
Protocol: as §1

A. baumannii ATCC 17978 = assay: microbe, parasite or virus in culture; type: cell-based, Acinetobacter baumannii; details: for MIC: Acinetobacter baumannii, ATCC17978, 18 h, agent alone, one value per checkerboard plate, read-out: MIC alone
Protocol: as §1

P. aeruginosa PAO1 = assay: microbe, parasite or virus in culture; type: cell-based, Pseudomonas aeruginosa; details: for MIC: Pseudomonas aeruginosa, PAO1, 18 h, agent alone, one value per checkerboard plate, read-out: MIC alone
Protocol: as §1

P. aeruginosa 114228 = assay: microbe, parasite or virus in culture; type: cell-based, Pseudomonas aeruginosa; details: Pseudomonas aeruginosa, 114228, agent alone, one value per checkerboard plate
Protocol: as §1

K. pneumoniae 113250 = assay: Checkerboard assay; type: cell-based, Klebsiella pneumoniae; details: one value per checkerboard plate; for MIC: Klebsiella pneumoniae, 113250, agent alone; for MIC alone: agent alone
Protocol: as §1

K. pneumoniae 113254 = assay: Checkerboard assay; type: cell-based, Klebsiella pneumoniae; details: one value per checkerboard plate; for MIC: Klebsiella pneumoniae, 113254, agent alone
Protocol: as §1

A. baumannii AB031 = assay: Checkerboard assay; type: cell-based, Acinetobacter baumannii; details: one value per checkerboard plate; for MIC: Acinetobacter baumannii, AB031, agent alone
Protocol: as §1

[1] = test system: P. aeruginosa P262-101856; assay: Checkerboard assay; type: cell-based, Pseudomonas aeruginosa; details: Pseudomonas aeruginosa, P262101856, agent alone, one value per checkerboard plate
Protocol: as §1

P. aeruginosa 101243 = assay: Checkerboard assay; type: cell-based, Pseudomonas aeruginosa; details: one value per checkerboard plate; for MIC: Pseudomonas aeruginosa, 101243, agent alone
Protocol: as §1

E. cloacae 121187 = assay: microbe, parasite or virus in culture; type: cell-based, Enterobacter cloacae; details: one value per checkerboard plate; for MIC: Enterobacter cloacae, 121187, agent alone; for MIC alone: agent alone
Protocol: as §1

E. coli ATCC 25922 = assay: microbe, parasite or virus in culture; type: cell-based, Escherichia coli; design: key to FIC index antibiotic + GCol / FIC index antibiotic + GPMB: sum of FICs; ≤0.5 synergy, 0.5–4 additivity, >4 antagonism; details: for MIC: Escherichia coli, ATCC25922, 18 h, agent alone, one value per checkerboard plate, read-out: MIC alone
Protocol: as §1

E. coli 107115 = assay: microbe, parasite or virus in culture; type: cell-based, Escherichia coli; details: one value per checkerboard plate; for MIC: Escherichia coli, 107115, agent alone
Protocol: as §1

E. coli 94393 = assay: Checkerboard assay; type: cell-based, Escherichia coli; details: one value per checkerboard plate; for MIC: Escherichia coli, 94393, agent alone
Protocol: as §1

E. coli 94474 = assay: Checkerboard assay; type: cell-based, Escherichia coli; details: one value per checkerboard plate; for MIC: Escherichia coli, 94474, agent alone
Protocol: as §1

P. aeruginosa P259-96918 = assay: Checkerboard assay; type: cell-based, Pseudomonas aeruginosa; details: Pseudomonas aeruginosa, P25996918; agent alone, one value per checkerboard plate
Protocol: as §1

[2] = test system: P. aeruginosa P264-104354; assay: Checkerboard assay; type: cell-based, Pseudomonas aeruginosa; details: Pseudomonas aeruginosa, P264104354, agent alone, one value per checkerboard plate
Protocol: as §1

E. cloacae 118564 = assay: Checkerboard assay; type: cell-based, Enterobacter cloacae; details: Enterobacter cloacae, 118564; agent alone, one value per checkerboard plate
Protocol: as §1

## CC[C@H]1OC(=O)[C@H](C)[C@@H](O[C@H]2C[C@@](C)(OC)[C@@H](O)[C@H](C)O2)[C@H](C)[C@@H](O[C@@H]2O[C@H](C)C[C@H](N(C)C)[C@H]2O)[C@](C)(O)C[C@@H](C)C(=O)[C@H](C)[C@@H](O)[C@]1(C)O [Erythromycin]
A. baumannii 110193
  MIC: 2 µg/mL
  MIC alone: 4 µg/mL
A. baumannii AB027
  MIC: 8 µg/mL
  MIC alone: 4 µg/mL
A. baumannii 92247
  MIC: 8 µg/mL
A. baumannii ATCC 17978
  Absolute MIC of antibiotic at 2 μg/mL GCol: 32 µg/mL
  Absolute MIC of antibiotic at 2 μg/mL GPMB: 0.5 µg/mL
  MIC: 32 µg/mL
P. aeruginosa PAO1
  Absolute MIC of antibiotic at 4 μg/mL GCol: 16 µg/mL
  Absolute MIC of antibiotic at 4 μg/mL GPMB: 2 µg/mL
P. aeruginosa 114228
  MIC: 64 µg/mL
K. pneumoniae 113250
  MIC: 32 µg/mL
  MIC alone: 64 µg/mL
K. pneumoniae 113254
  MIC: 64 µg/mL
A. baumannii AB031
  MIC: 16 µg/mL
[1]
  MIC: 2050 µg/mL
P. aeruginosa 101243
  MIC: 1020 µg/mL
E. cloacae 121187
  MIC: 1020 µg/mL
  MIC alone: 512 µg/mL
E. coli ATCC 25922
  Absolute MIC of antibiotic at 2 μg/mL GCol: 0.25 µg/mL
  MIC: 32 µg/mL
E. coli 107115
  MIC: 2050 µg/mL
E. coli 94393
  MIC: 64 µg/mL
E. coli 94474
  MIC: 64 µg/mL

## C=C[C@]1(C)C[C@@H](OC(=O)CO)[C@]2(C)[C@H](C)CC[C@]3(CCC(=O)[C@H]32)[C@@H](C)[C@@H]1O [Pleuromutilin]
A. baumannii ATCC 17978
  Absolute MIC of antibiotic at 2 μg/mL GCol: 32 µg/mL
  Absolute MIC of antibiotic at 2 μg/mL GPMB: 2 µg/mL
  FIC index antibiotic + GPMB: 0.129
  MIC: 512 µg/mL
A. baumannii ATCC 17978; at 2 μg/mL GCol
  Fold-potentiation of antibiotic: 16
A. baumannii ATCC 17978; at 2 μg/mL GPMB
  Fold-potentiation of antibiotic: 256
P. aeruginosa PAO1
  Absolute MIC of antibiotic at 4 μg/mL GCol: 256 µg/mL
  Absolute MIC of antibiotic at 4 μg/mL GPMB: 32 µg/mL
  MIC: 1020 µg/mL
P. aeruginosa PAO1; at 4 μg/mL GCol
  Fold-potentiation of antibiotic: 4
P. aeruginosa PAO1; at 4 μg/mL GPMB
  Fold-potentiation of antibiotic: 32
E. coli ATCC 25922
  Absolute MIC of antibiotic at 2 μg/mL GCol: 0.25 µg/mL
  Absolute MIC of antibiotic at 2 μg/mL GPMB: 0.125 µg/mL
  FIC index antibiotic + GCol: 0.066
  FIC index antibiotic + GPMB: 0.035
  MIC: 64 µg/mL
E. coli ATCC 25922; at 2 μg/mL GCol
  Fold-potentiation of antibiotic: 256
E. coli ATCC 25922; at 2 μg/mL GPMB
  Fold-potentiation of antibiotic: 512

## CO[C@H]1/C=C/O[C@@]2(C)Oc3c(C)c(O)c4c(O)c(c(/C=N/N5CCN(C)CC5)c(O)c4c3C2=O)NC(=O)/C(C)=C\C=C\[C@H](C)[C@H](O)[C@@H](C)[C@@H](O)[C@@H](C)[C@H](OC(C)=O)[C@@H]1C [Rifampicin]
A. baumannii 110193
  MIC: 2 µg/mL
  MIC alone: 1 µg/mL
A. baumannii AB027
  MIC: 2 µg/mL
  MIC alone: 1 µg/mL
A. baumannii 92247
  MIC: 1 µg/mL
A. baumannii 92247; agent alone
  MIC alone: 0.5 µg/mL
A. baumannii ATCC 17978
  Absolute MIC of antibiotic at 2 μg/mL GCol: 0.0625 µg/mL
  Absolute MIC of antibiotic at 2 μg/mL GPMB: 0.004 µg/mL
  FIC index antibiotic + GPMB: 0.066
  MIC: 2 µg/mL
A. baumannii ATCC 17978; at 2 μg/mL GCol
  Fold-potentiation of antibiotic: 32
A. baumannii ATCC 17978; at 2 μg/mL GPMB
  Fold-potentiation of antibiotic: 512
P. aeruginosa PAO1
  Absolute MIC of antibiotic at 4 μg/mL GCol: 0.0625 µg/mL
  Absolute MIC of antibiotic at 4 μg/mL GPMB: 0.03125 µg/mL
  MIC: 16 µg/mL
P. aeruginosa PAO1; at 4 μg/mL GCol
  Fold-potentiation of antibiotic: 256
P. aeruginosa PAO1; at 4 μg/mL GPMB
  Fold-potentiation of antibiotic: 512
P. aeruginosa 114228
  MIC: 16 µg/mL
K. pneumoniae 113250
  MIC: 16 µg/mL
  MIC alone: 32 µg/mL
K. pneumoniae 113254
  MIC: 8 µg/mL
K. pneumoniae 113254; agent alone
  MIC alone: 16 µg/mL
A. baumannii AB031
  MIC: 2 µg/mL
A. baumannii AB031; agent alone
  MIC alone: 1 µg/mL
[1]
  MIC: 512 µg/mL
P. aeruginosa P259-96918
  MIC: 16 µg/mL
P. aeruginosa 101243
  MIC: 2 µg/mL
P. aeruginosa 101243; agent alone
  MIC alone: 4 µg/mL
[2]
  MIC: 16 µg/mL
E. cloacae 121187
  MIC: 1 µg/mL
  MIC alone: 2 µg/mL
E. coli ATCC 25922
  Absolute MIC of antibiotic at 2 μg/mL GCol: 0.008 µg/mL
  Absolute MIC of antibiotic at 2 μg/mL GPMB: 0.008 µg/mL
  FIC index antibiotic + GCol: 0.023
  FIC index antibiotic + GPMB: 0.07
  MIC: 2 µg/mL
E. coli ATCC 25922; at 2 μg/mL GCol
  Fold-potentiation of antibiotic: 256
E. coli ATCC 25922; at 2 μg/mL GPMB
  Fold-potentiation of antibiotic: 256
E. coli 107115
  MIC: 32 µg/mL
E. coli 107115; agent alone
  MIC alone: 16 µg/mL
E. coli 94393
  MIC: 8 µg/mL
E. coli 94393; agent alone
  MIC alone: 4 µg/mL
E. coli 94474
  MIC: 8 µg/mL
E. coli 94474; agent alone
  MIC alone: 4 µg/mL
E. cloacae 118564
  MIC: 8 µg/mL

From article PMC9598282 (Antibiotics, 2022)
